Experimental data as given in publication PMC7411710, “Biocatalysis of D,L-Peptide Nanofibrillar Hydrogel” (Molecules, 2020).
Non-standard residues stand in square brackets, D forms with d. Residues, ends and D or L forms follow the SMILES beside them.

Tests used:
oscillatory rheometry = assay type: physicochemical; settings: 10 mM; 1 Hz; 25 °C
Experimental: His–Leu–^DLeu–Ile–His–Leu–^DLeu–Ile (Scheme 1) was synthesized in solid phase and purified by reverse-phase HPLC, following published procedures. Peptide identity and purity was confirmed by ^1H-NMR and electrospray ionization (ESI)-MS (see Supplementary Materials). […] A pH change to neutral was then used to trigger fibrillization, which, at higher concentrations, led to the formation of self-supportive hydrogels, with a minimum gelling concentration (mgc) of 10 mM. The viscoelastic properties of the hydrogel were assessed by oscillatory rheometry (see Supplementary Materials). At mgc, the peptide gelled immediately and reached a G′ of 1 kPa, which remained stable over time. Frequency sweeps confirmed G′ > G″, with both values being independent of applied frequency, as expected for a stable hydrogel. Stress sweeps confirmed a linear viscoelastic region until 1 Pa, with a gel-to-sol transition occurring above 10 Pa.
Dynamic time sweep rheological analysis was conducted on a Malvern Kinexus Ultra Plus Rheometer (Alfatest, Milan, Italy) with a 20-mm stainless-steel parallel plate geometry. […] Samples were prepared in situ and immediately analyzed with a gap of 1 mm. Time sweeps were recorded using a frequency of 1 Hz and a controlled stress of 0.50 Pa. Frequency sweeps were recorded using a controlled stress of 0.50 Pa, and then stress sweeps were recorded using a frequency of 1 Hz.

[1] = water solubility (observation); assay type: physicochemical; settings: neutral pH
[2] = pH 7.4; without Zn2+; cited from earlier work
From the text: Table 2 Comparison of catalytic performance with literature data on short peptides without Zn^2+. | column: kcat/KM (s^−1M^−1)

[3] = cited from earlier work
From the text: However, at present, it is still not possible to predict exactly the performance of a de novo designed peptide. Amongst the various approaches to achieve a self-assembling short peptide, an attractive strategy features the inclusion of both D- and L-amino acids at specific positions along a heterochiral sequence, whereby nanostructured hydrogels can be formed even with just three amino acids, while their homochiral isomers typically precipitate in water. These supramolecular systems feature amphipathic assemblies, whereby the different stereoconfiguration allows displaying hydrophobic s ...

For CC[C@H](C)[C@H](NC(=O)[C@@H](CC(C)C)NC(=O)[C@H](CC(C)C)NC(=O)[C@H](Cc1c[nH]cn1)NC(=O)[C@@H](NC(=O)[C@@H](CC(C)C)NC(=O)[C@H](CC(C)C)NC(=O)[C@@H](N)Cc1c[nH]cn1)[C@@H](C)CC)C(=O)O [His–Leu–^DLeu–Ile–His–Leu–^DLeu–Ile] (H-HL[dL]IHL[dL]I-OH), the “gel-to-sol transition (stress sweep)” value (oscillatory rheometry) was “above 10 Pa” and the water solubility [1] was “limited water solubility”.
For “H2KLLLAAA(Nε-palmytoyl)K-NH2 [peptide amphiphile reported by Guler and Stupp]”, the kcat/KM [2] is listed as 20 s^−1M^−1.
In the case of “HSGQQKFQFQFEQQ [self-assembling His peptide, literature catalyst]”, the kcat/KM [2] is listed as 0.09 s^−1M^−1.
For His–^DPhe–^DPhe, the “concentration of hydrogel formation” value [3] is given as 50000 µM.
